We go through 21 molecules from patent US4558122A, “Stable s-adenosylmethionine derivatives, the process for their preparation, and therapeutic compositions which contain them as active principle” (Bioresearch S.P.A., priority 1981, dated 1985).

Like-named read-outs stand apart in the source and are kept apart here.

One series deals with intestinal sacs. Briefly: absorption "in situ" (intestinal sacs). The class given is in vivo, rat. The conditions noted are these: 2 mg in 1 ml physiological solution, rats, 2 hours; H2 SO4 salts, m 0 or 1, n 3. The protocol:
(§1) In the 1st test, known as "in situ" (intestinal sacs), 2 mg of each product to be tested in 1 ml of physiological solution were placed in intestinal sacs provided in rats under ether anesthesia. The rats were killed after 2 hours, and the residual content of the sac (wall+content) was analysed. In the 2nd test, portions of intestine turned inside out were used, incubated at 37° C. in accordance with Krebs Ringer against an external product concentration of 10^-4 M. The products were all salified with H2 SO4 to give salts in which m was 0 or 1 and n was 3.

Series [1] relates to portions of intestine turned inside out. As to the kind of experiment: absorption by portions of intestine turned inside out. The class given is in vitro ADME. The protocol: In the 2nd test, portions of intestine turned inside out were used, incubated at 37° C. in accordance with Krebs Ringer against an external product concentration of 10^-4 M. The products were all salified with H2 SO4 to give salts in which m was 0 or 1 and n was 3.

Series [2] can be described thus: absorption "in situ" (intestinal sacs). The class given is in vivo, rat. The note with it: rat, in situ intestinal sacs, 2 mg in 1 ml physiological solution, rats, H2 SO4 salts, m 0 or 1, n 3, read-out: PRODUCT ABSORPTION in sacs. The protocol: as §1
The next series in a line: physchem. Type of series: physicochemical. The note with it: water.
Series [3] in a line: stability in the dry state at 45° C. The class given is physicochemical.
Where [4] appears, read: 37° C., Krebs Ringer, external concentration 10^-4 M, H2 SO4 salts, m 0 or 1, n 3.
Where [5] appears, read: 45° C., 60 days, read-out: Degradation at 45° C. after 60 days.
Where [6] appears, read: 45° C., 120 days, read-out: Degradation at 45° C. after 120 days.
Setting [7] is: 45° C., 180 days, read-out: Degradation at 45° C. after 180 days.
Setting [8] is: 45° C., 240 days, read-out: Degradation at 45° C. after 240 days.
Setting [9] is: 45° C., 360 days, read-out: Degradation at 45° C. after 360 days.

On to SAM n-octyl [H Octyl H], for which the “PRODUCT ABSORPTION in sacs” value in the series with intestinal sacs was 62 % of dose. Further, the “PRODUCT ABSORPTION intestine inside out” value in series [1] (setting [4]) came out at 0.023 nmoles/h/mg tissue.

As to `CCCCCCOC(=O)[C@@H](N)CC[S+](C)C[C@H]1O[C@@H](n2cnc3c(N)ncnc32)[C@H](O)[C@@H]1O` (some centres unmarked) [C6 H13 H H, SAM n-hexyl ester], in series [2], the Fa at 2 h was 67%. In series [1] (setting [4]), the “PRODUCT ABSORPTION intestine inside out” value is reported as 0.023 nmoles/h/mg tissue.

Take `C[S+](CC[C@H](NC(=O)c1ccccc1)C(=O)[O-])C[C@H]1O[C@@H](n2cnc3c(N)ncnc32)[C@H](O)[C@@H]1O` (some centres unmarked) [H COC6 H5 H, SAM benzoyl]: the Fa at 2 h in series [2] is 12%. In series [1] (setting [4]), the “PRODUCT ABSORPTION intestine inside out” value was 0.017 nmoles/h/mg tissue.

For `CCCCCOC(=O)[C@@H](N)CC[S+](C)C[C@H]1O[C@@H](n2cnc3c(N)ncnc32)[C@H](O)[C@@H]1O` (some centres unmarked) [C5 H11 H H, SAM n-pentyl ester], the Fa at 2 h in series [2] is 68%. In series [1] (setting [4]), the “PRODUCT ABSORPTION intestine inside out” value is reported as 0.025 nmoles/h/mg tissue.

In the series “physchem” (pH 2), `C[S+](CC[C@H](N)C(=O)[O-])C[C@H]1O[C@@H](n2cnc3c(N)ncnc32)[C@H](O)[C@@H]1O` (some centres unmarked) [H, S-adenosylmethionine] had a degraded at 0.25 h of 80%, a degraded at 0.5 h of 100%, a degraded at 1 h of 100% and a degraded at 4 h of 100%. In the series “physchem” (pH 3), the degraded at 0.25 h was 90%, the degraded at 0.5 h is 100%, the degraded at 1 h was 100% and the degraded at 4 h worked out at 100%. Moreover, in the series “physchem” (pH 4), the degraded at 0.25 h was 100%, the degraded at 0.5 h came to 100%, the degraded at 1 h came to 100% and the degraded at 4 h was 100%. In addition, the “PRODUCT ABSORPTION intestine inside out” value in series [1] turned out to be 0.009 nmoles/h/mg tissue.

For `C[S+](CC[C@H](NC(=O)CCC(=O)O)C(=O)[O-])C[C@H]1O[C@@H](n2cnc3c(N)ncnc32)[C@H](O)[C@@H]1O` (some centres unmarked) [H Succinyl H, SAM succinyl], the Fa at 2 h in series [2] was found to be 25%. In series [1] (setting [4]), the “PRODUCT ABSORPTION intestine inside out” value came out at 0.016 nmoles/h/mg tissue.

With SAM n-dodecyl [H Dodecyl H], the “PRODUCT ABSORPTION in sacs” value in the series with intestinal sacs is listed as 65 % of dose. Moreover, the “PRODUCT ABSORPTION intestine inside out” value in series [1] (setting [4]) was 0.019 nmoles/h/mg tissue.

For the molecule `CC(=O)N[C@@H](CC[S+](C)C[C@H]1O[C@@H](n2cnc3c(N)ncnc32)[C@H](OC(C)=O)[C@@H]1OC(C)=O)C(=O)[O-]` (some centres unmarked) [SAM triacetyl. 2 H2 SO4, SAM triacetyl], in series [3] (setting [5]), the degraded at 1440 h stood at 1%. In addition, in series [3] (setting [6]), the degraded at 2880 h is 1.9%. Also, in series [3] (setting [7]), the degraded at 4320 h is 4.1%. The degraded at 5760 h in series [3] (setting [8]) is 5.9%. Also, in series [3] (setting [9]), the degraded at 8640 h is 8%.

In the case of `CC(=O)N[C@@H](CC[S+](C)C[C@H]1O[C@@H](n2cnc3c(N)ncnc32)[C@H](O)[C@@H]1O)C(=O)[O-]` (some centres unmarked) [H COCH3 H, SAM monoacetyl], in series [2], the Fa at 2 h worked out at 10%. Further, the “PRODUCT ABSORPTION intestine inside out” value in series [1] (setting [4]) worked out at 0.046 nmoles/h/mg tissue.

As to `CC(=O)O[C@@H]1[C@H](OC(C)=O)[C@@H](C[S+](C)CC[C@H](NC(=O)CCC(=O)O)C(=O)[O-])O[C@H]1n1cnc2c(N)ncnc21` (some centres unmarked) [H Succinyl COCH3, SAM succinyl-diacetyl], the Fa at 2 h in series [2] was found to be 91%. Besides, in series [1] (setting [4]), the “PRODUCT ABSORPTION intestine inside out” value came to 0.035 nmoles/h/mg tissue.

Consider `C[S+](CC[C@H](NC(=O)CCCC(=O)O)C(=O)[O-])C[C@H]1O[C@@H](n2cnc3c(N)ncnc32)[C@H](O)[C@@H]1O` (some centres unmarked) [H Glutaryl H, SAM glutaryl], for which the Fa at 2 h in series [2] came to 23%. Moreover, the “PRODUCT ABSORPTION intestine inside out” value in series [1] (setting [4]) was determined as 0.018 nmoles/h/mg tissue.

For the molecule `CCCOC(=O)[C@@H](N)CC[S+](C)C[C@H]1O[C@@H](n2cnc3c(N)ncnc32)[C@H](O)[C@@H]1O` (some centres unmarked) [C3 H7 H H, SAM n-propyl ester], the Fa at 2 h in series [2] amounted to 61%. The “PRODUCT ABSORPTION intestine inside out” value in series [1] (setting [4]) was 0.045 nmoles/h/mg tissue.

In the case of `C[S+](CC[C@H](N)C(=O)[O-])C[C@H]1O[C@@H](n2cnc3c(N)ncnc32)[C@H](O)[C@@H]1O` (some centres unmarked) [SAM. H2 SO4, S-adenosylmethionine], in series [3], the degraded at 1440 h was 80%, the degraded at 2880 h is 100%, the degraded at 4320 h turned out to be 100% and the degraded at 5760 h came to 100%. The molecule also gave a degraded at 8640 h in series [3] of 100%.

On to `CCCCC(=O)N[C@@H](CC[S+](C)C[C@H]1O[C@@H](n2cnc3c(N)ncnc32)[C@H](OC(=O)CCCC)[C@@H]1OC(=O)CCCC)C(=O)[O-]` (some centres unmarked) [H COC4 H9 COC4 H9], for which the Fa at 2 h in series [2] came to 87%. Moreover, in series [1] (setting [4]), the “PRODUCT ABSORPTION intestine inside out” value is 0.031 nmoles/h/mg tissue.

Turning to `CC(=O)N[C@@H](CC[S+](C)C[C@H]1O[C@@H](n2cnc3c(N)ncnc32)[C@H](OC(C)=O)[C@@H]1OC(C)=O)C(=O)[O-]` (some centres unmarked) [H COCH3 COCH3, SAM triacetyl], the Fa at 2 h in series [2] was 65%. In series [1] (setting [4]), the “PRODUCT ABSORPTION intestine inside out” value was 0.047 nmoles/h/mg tissue.

With `CCOC(=O)[C@@H](N)CC[S+](C)C[C@H]1O[C@@H](n2cnc3c(N)ncnc32)[C@H](O)[C@@H]1O` (some centres unmarked) [C2 H5, SAM ethyl ester], in the series “physchem” (pH 2), the degraded at 0.25 h is 2%, the degraded at 0.5 h was found to be 4%, the degraded at 1 h came out at 8% and the degraded at 4 h is 35%. Besides, in “physchem” (pH 3), the degraded at 0.25 h amounted to 3%, the degraded at 0.5 h came out at 6%, the degraded at 1 h is 13% and the degraded at 4 h was 55%. In addition, in “physchem” (pH 4), the degraded at 0.25 h is 5%, the degraded at 0.5 h came to 9%, the degraded at 1 h worked out at 19% and the degraded at 4 h was found to be 80%. The Fa at 2 h in series [2] came out at 59%. The “PRODUCT ABSORPTION intestine inside out” value in series [1] (setting [4]) is given as 0.061 nmoles/h/mg tissue.

As for `Cc1ccc(S(=O)(=O)N[C@@H](CC[S+](C)C[C@H]2O[C@@H](n3cnc4c(N)ncnc43)[C@H](O)[C@@H]2O)C(=O)[O-])cc1` (some centres unmarked) [H p.tol. sulphon. H, SAM p-toluenesulphonyl], in series [2], the Fa at 2 h worked out at 13%. In series [1] (setting [4]), the “PRODUCT ABSORPTION intestine inside out” value came out at 0.021 nmoles/h/mg tissue.

Turning to `CCCCOC(=O)[C@@H](N)CC[S+](C)C[C@H]1O[C@@H](n2cnc3c(N)ncnc32)[C@H](O)[C@@H]1O` (some centres unmarked) [C4 H9, SAM n-butyl ester], in the series “physchem” (pH 2), the degraded at 0.25 h turned out to be 2%, the degraded at 0.5 h came to 4%, the degraded at 1 h is 8% and the degraded at 4 h was determined as 30%. In addition, in “physchem” (pH 3), the degraded at 0.25 h worked out at 3%, the degraded at 0.5 h was determined as 6%, the degraded at 1 h was 12% and the degraded at 4 h came out at 52%. In the series “physchem” (pH 4), this molecule gave a degraded at 0.25 h of 4%, a degraded at 0.5 h of 9%, a degraded at 1 h of 17% and a degraded at 4 h of 75%. The Fa at 2 h in series [2] was found to be 65%. Moreover, the “PRODUCT ABSORPTION intestine inside out” value in series [1] (setting [4]) is reported as 0.037 nmoles/h/mg tissue.

For the molecule `CC(=O)N[C@@H](CC[S+](C)C[C@H]1O[C@@H](n2cnc3c(N)ncnc32)[C@H](O)[C@@H]1O)C(=O)[O-]` (some centres unmarked) [SAM monoacetyl. 2 H2 SO4, SAM monoacetyl], the degraded at 1440 h in series [3] (setting [5]) stood at 0%. The degraded at 2880 h in series [3] (setting [6]) was found to be 1.4%. The degraded at 4320 h in series [3] (setting [7]) came to 3%. For the same molecule, in series [3] (setting [8]), the degraded at 5760 h turned out to be 4.6%. The degraded at 8640 h in series [3] (setting [9]) was 5.5%.

For `CCCCC(=O)N[C@@H](CC[S+](C)C[C@H]1O[C@@H](n2cnc3c(N)ncnc32)[C@H](O)[C@@H]1O)C(=O)[O-]` (some centres unmarked) [H COC4 H9 H], in series [2], the Fa at 2 h came out at 18%. For the same molecule, the “PRODUCT ABSORPTION intestine inside out” value in series [1] (setting [4]) is 0.028 nmoles/h/mg tissue.

In the series “physchem” (pH 2), `COC(=O)[C@@H](N)CC[S+](C)C[C@H]1O[C@@H](n2cnc3c(N)ncnc32)[C@H](O)[C@@H]1O` (some centres unmarked) [CH3, SAM methyl ester] showed a degraded at 0.25 h of 5%, a degraded at 0.5 h of 10%, a degraded at 1 h of 21% and a degraded at 4 h of 75%. Moreover, in “physchem” (pH 3), the degraded at 0.25 h was 6%, the degraded at 0.5 h amounted to 13%, the degraded at 1 h is 25% and the degraded at 4 h was found to be 100%. In the series “physchem” (pH 4), this molecule registered a degraded at 0.25 h of 8%, a degraded at 0.5 h of 18%, a degraded at 1 h of 40% and a degraded at 4 h of 100%. Further, in series [2], the Fa at 2 h was determined as 55%. For the same molecule, in series [1] (setting [4]), the “PRODUCT ABSORPTION intestine inside out” value came out at 0.078 nmoles/h/mg tissue.
